Data: US20140194506A1, “Use of Potassium Piperonyl Pentadienoate for Lowering Blood Lipid” (INNER MONGOLIA UNIVERSITY, priority 2011, published 2014)
Values joined by “and” are separate entries in the source; they are usually repeats but may differ in a detail not shown here. Identical values can stand only once.

Columns and labels:
[1] = tested on: high lipid mode white rats; assay: Prophylactic blood lipid lowering in high lipid feed white rats (Example 2); assay type: in vivo, Wistar male white rats
Source text: High lipid feed formula: cholesterol 3%, lard 10%, sodium cholate 0.5%, basal feed: […] (formula: flour 17.14%, rice flour 8.57%, maize […], bran 21%, fish flour 1.71%, dairy salt 0.857%, vitamin 0.085%, bean material 17.14%).
60 Wistar White male rats of 150±10 g of body weight were fed with common standard feed for 5 days, and then divided into 6 groups randomly. Each group included 10 rats. Group I was a blank group, where the rats were fed with common standard feed. Group II was a high lipid feed mode control group. Group III was a Simvastatin 10 mg/kg group. Group IV was a GB-O group. Group V was a GB-H group. Group VI was a GB-K group. High lipid feed mode control group were fed with high lipid feed together with distilled water. Groups III, IV, V, and VI were fed with high lipid feed together with required simvastatin, GB-O, GB-H, and GB-K suspensions (formulated by grinding with 0.5% sodium […] CMC-Na) respectively. The dosing amount was 0.046 mmol/kg, and the amount of high lipid feed was 20 g per day for each rat. The grouping and the dosing amount for each group can be found in table 1.
(§1) The body weights of white rats were determined and recorded every day. The rats in each group were dosed basing on its body weight by feeding for 14 days at 22° C. of room temperature and 40-50% of relative humidity. On the 14th day, after fasting and freely receiving water for 16 hours, its blood was sampled from aorta, placed for 30 min to blood coagulate, and centrifugated for 15 min at 3000 r/min to separate serum. The values of serum total cholesterol (TC), and triglyceride (TG) were determined on an automatic analyzer using enzymatic colorimetry, the value of high density lipoprotein cholesterol (HDL) was determined using a phosphotungstic acid-Mg precipitation method, and the value of low density lipoprotein cholesterol (LDL) was determined using the polyvinyl sulfate precipitation method.
(§2) All data were treated statistically, and were presented as means±standard deviations (x±s). The significance of difference was judged by T test. The calculation of p value was obtained by comparing the high lipid mode group with the blank control group, and comparing other test drug groups with the high lipid mode group.
(§3) The reaction temperature was 37° C. The cholesterol ester in serum was first hydrolyzed into free cholesterol (FC) and fatty acid with cholesterol ester hydrolase (CEH). Then, all FC in serum was oxidized into ch-4-en-3-one and H2O2 with cholesterol oxidase (COD). The resulting H2O2 was reacted with 4-aminoantipyrine (4-AAP) and 4-chlorophenol in the presence of peroxidase (POD) (Trinder reaction), to yield red quinine imine, which was calorimetrically tested at a 500 nm wavelength.
The reaction temperature was 37° C. The triglyceride ire serum was first hydrolyzed into glycerol and fatty acid with lipoprotein lipase (LPL). The resulting glycerol was reacted with ATP in the presence of glycerol kinase (GK), to produce glycerol-3-phosphate and ADP. The resulting glycerol-3-phosphate was oxidized into dihydroxyacetone phosphate and H2O2 with oxygen in the presence of glycerol phosphate oxidase (GPO). The resulting H2O2 was reacted with 4-aminoantipyrine (4-AAP) and 4-chlorophenol in the presence of peroxidase (POD) (Trinder reaction), to yield red quinine imine, which was colorimetrically determined at a 500 nm wavelength.
The LDL in serum was precipitated using PVS. The serum TC and the Ch in the resulting supernatant were determined using the enzymatic methods described hereinabove, and the LDL-C was calculated by subtracting the Ch from the serum TC. The polyethylene glycol monoether (PEGME) was added in a suitable amount in order to facilitate the precipitation of LDL. […]

[2] = tested on: high lipid mode white rats; assay: Therapeutic blood lipid lowering in hyperlipoidemia mode white rats (Example 3); assay type: in vivo, Wistar male white rats
Source text: High lipid feed formula: cholesterol 3%, lard 10%, sodium cholate 0.5%, basal feed: 86.5% (formula: flour 17.14%, rice flour 8.57%, maize 17.14%, bran 21%, fish flour 1.71%, dairy salt 0.857%, vitamin 0.085%, bean material 17.14%).
72 Wistar white male rats of 170±10 g of body weight were divided into 6 groups randomly and numbered. Each group included 12 rats. The rats were fed with common standard feed under experimental conditions and observed for 7 days, and its blood was sampled from tail for testing serum total cholesterol (TC). […] From the 8th day, the group I was set as a blank group, and was fed with common standard feed. Other groups were fed with high lipid feed for 8 days in a row, and the blood was sampled from tail on the next day for testing TC. […] The rats then were divided into 5 groups randomly (see table 12) according to TC levels. Each group included 10 rats (10 rats who were unsuccessful blood lipid modes were discarded). The rats were ted with high lipid teed continuously. Group was a high lipid feed mode control group. Group III was a Simvastatin 10 mg/kg group. Group IV was a GB-O group. Group V was a GB-H group. Group VI was a GB-K group. The high lipid feed mode control group was fed with high lipid feed together with distilled water. Groups III, IV, V, and VI were fed with high lipid feed together with required simvastatin, GB-O, GB-H, and GB-K suspensions (formulated by grinding with 0.5% sodium carboxymethycellulose CMC-Na) respectively. The dosing amount was 0.046 mmol/kg, and the amount of high lipid feed was 20 g per day for each rat. The grouping and the dosing amount for each group can be found in table 13.
as §1, with “rats for” for “rats in”, “dosed basing,” for “dosed basing”, “hours, the” for “hours, its”, “coagulate,” for “coagulate, and”, “using a” for “using the”
as §2, with “and are” for “and were”, “as means standard” for “as means±standard”
as §3, with “hydrolase (CEH.)” for “hydrolase (CEH).”, “and H2O2)” for “and H2O2”, “resulting H2O2,” for “resulting H2O2”, “was colarimetrically” for “was calorimetrically”, “at” for “at a”
The reaction temperature was 37° C. The triglyceride in serum was first hydrolyzed into glycerol and fatty acid with lipoprotein lipase (LPL). The resulting glycerol was reacted with ATP in the presence of glycerol kinase (GK), to produce glycerol-3-phosphate and ADP. The resulting glycerol-3-phosphate was oxidized into dihydroxyacetone phosphate and H2O2 with oxygen in the presence of glycerol phosphate oxidase (GPO). […]

[3] = group mean n=10, 15th day after administration
[4] = in comparison with group II (high lipid mode control group)
[5] = rats No. 1-10, 0.046 mmol/kg (Simvastatin 10 mg/kg), 15th day after administration

Compound: O=C(O)/C=C/C=C/c1ccc2c(c1)OCO2 [GB-H, piperonyl pentadienoic acid]
- Total cholesterol value ([1]; Table 6, mean ± standard deviation, n=10): 13.23 ± 3.49
- Triglyceride value ([1]; Table 7, mean ± standard deviation, n=10): 1.31 ± 0.3219 mmol/L
- Low density lipoprotein cholesterol ([1]; Table 8, mean ± standard deviation, n=10): 4.298 ± 1.0578 mmol/L
- High density lipoprotein cholesterol ([1]; Table 9, mean ± standard deviation, n=10): 0.325 ± 0.0902 mmol/L
- serum total cholesterol (TC) contents, Mean ([1]; group mean n=10, 0.046 mmol/kg (Simvastatin 10 mg/kg), 15th day after administration): 13.23 mmol/L
- serum high density lipoprotein cholesterol (HDL) contents, Mean [1, 3]: 0.32 mmol/L
- serum low density lipoprotein cholesterol (LDL) contents, Mean [1, 3]: 4.29 mmol/L
- serum triglyceride (TG) contents, Mean [1, 3]: 1.31 mmol/L
- effect on serum low density lipoprotein cholesterol, in words [1, 4]: show the effect of lowering serum low density lipoprotein cholesterol value
- effect on serum total cholesterol, in words [1, 4]: extremely significant differences
- effect on serum triglyceride, in words ([1]; in comparison with group II (high lipid mode control group), listed as GB-1-1): extremely significant differences
- serum high density lipoprotein cholesterol (HDL) contents, individual rats [1, 5]: 0.26 mmol/L (2×) and 0.48 mmol/L and 0.18 mmol/L and 0.35 mmol/L and 0.28 mmol/L and 0.42 mmol/L and 0.41 mmol/L and 0.30 mmol/L and 0.31 mmol/L
- serum low density lipoprotein cholesterol (LDL) contents, individual rats [1, 5]: 4.53 mmol/L and 5.85 mmol/L and 4.24 mmol/L and 2.74 mmol/L and 4.19 mmol/L and 2.68 mmol/L and 5.09 mmol/L and 4.86 mmol/L and 3.51 mmol/L and 5.29 mmol/L
- serum triglyceride (TG) contents, individual rats [1, 5]: 1.15 mmol/L and 1.64 mmol/L and 1.71 mmol/L and 0.91 mmol/L and 0.88 mmol/L and 1.06 mmol/L and 1.58 mmol/L and 1.23 mmol/L and 1.70 mmol/L and 1.30 mmol/L
- serum total cholesterol (TC) contents, individual rats ([1]; rats No. 1-10, high lipid feed plus drug 14 days, 0.046 mmol/kg (Simvastatin 10 mg/kg), 15th day after administration): 16.64 mmol/L and 14.72 mmol/L and 10.11 mmol/L and 13.12 mmol/L and 9.56 mmol/L and 7.83 mmol/L and 12.22 mmol/L and 14.24 mmol/L and 14.28 mmol/L and 19.58 mmol/L
- Total cholesterol value ([2]; Table 18, mean ± standard deviation, n=10): 11.09 ± 1.82
- Triglyceride value ([2]; Table 19, mean ± standard deviation, n=10): 2.55 ± 0.42 mmol/L
- Low density lipoprotein cholesterol ([2]; Table 20, mean ± standard deviation, n=10): 3.34 ± 1.30 mmol/L
- High density lipoprotein cholesterol ([2]; Table 21, mean ± standard deviation, n=10): 0.67 ± 0.21 mmol/L
- serum high density lipoprotein cholesterol (HDL) contents, Mean [2, 3]: 0.67 mmol/L
- serum low density lipoprotein cholesterol (LDL) contents, Mean [2, 3]: 3.34 mmol/L
- serum total cholesterol (TC) contents, Mean [2, 3]: 11.09 mmol/L
- serum triglyceride (TG) contents, Mean [2, 3]: 2.55 mmol/L
- effect on serum high density lipoprotein cholesterol, in words [2, 4]: show the effect of some extent, of increasing high density lipoprotein cholesterol
- effect on serum low density lipoprotein cholesterol, in words [2, 4]: significant differences
- effect on serum total cholesterol, in words [2, 4]: extremely significant differences
- effect on serum triglyceride, in words [2, 4]: extremely significant differences
- serum high density lipoprotein cholesterol (HDL) contents, individual rats [2, 5]: 0.67 mmol/L and 0.85 mmol/L and 0.72 mmol/L and 0.77 mmol/L and 0.37 mmol/L and 0.46 mmol/L and 0.82 mmol/L and 0.73 mmol/L and 1.02 mmol/L and 0.35 mmol/L
- serum low density lipoprotein cholesterol (LDL) contents, individual rats [2, 5]: 2.22 mmol/L and 5.37 mmol/L (2×) and 2.03 mmol/L and 3.35 mmol/L and 3.61 mmol/L and 2.68 mmol/L and 2.09 mmol/L and 4.36 mmol/L and 2.34 mmol/L
- serum triglyceride (TG) contents, individual rats [2, 5]: 1.97 mmol/L and 2.08 mmol/L and 2.37 mmol/L and 2.61 mmol/L (2×) and 2.82 mmol/L and 2.47 mmol/L and 3.04 mmol/L and 2.23 mmol/L and 3.31 mmol/L
- serum total cholesterol (TC) contents, individual rats ([2]; rats No. 1-10, hyperlipoidemia mode, drug 14 days, 0.046 mmol/kg (Simvastatin 10 mg/kg), 15th day after administration): 12.34 mmol/L and 9.37 mmol/L and 12.03 mmol/L and 10.25 mmol/L and 10.37 mmol/L and 9.36 mmol/L (2×) and 11.28 mmol/L (2×) and 15.24 mmol/L
